Test results as given in patent US8633183B2 (priority 2010, dated 2014).

Molecular target: PI3Kalpha (Homo sapiens (Human), UniProt P42336)
Settings: read-out: IC50 PI3K
Protocol: Plot the concentration of each compound versus the emission ratio. […] Determination of IC50 values can be obtained by curve fitting (sigmoidal dose response, variable slope) using Prism software from GraphPad).
Method Type: Filter-Binding-Assay
Compounds are serially diluted in assay buffer+6% DMSO and 10 μl of each dilution is added per well of a 96-well plate (compounds are tested in duplicates) and mixed with 30 μl of the lipid vesicles containing PDGFR-Peptide (0.5 μM final) and PI3K alpha (25 ng/well final). The mixture is then incubated for 20 minutes at room temperature. Subsequently, 20 μl of assay buffer containing 3 μM cold ATP and 0.5 μCi/20 μl 33P-ATP are added. The plates are then incubated at room temperature for 120 minutes (shaking with 300 rpm). The reaction mix is transferred onto filter plates using “filtermate harvester” from Packard: filter plates are rinsed with PBS, then the reaction mix is filtered onto the filter plate, washed 5 times with PBS and are allowed to dry for 30-60 minutes at 50° C.
As positive control serve wells containing vehicle controls (1% DMSO in assay buffer), showing non-inhibited kinase activity (high values). Wells containing assay buffer instead of enzyme can serve as control for background activity (low values).
Calculate IC50 values using the Smiley program (based on GrapPad Prism)

Chain of PI3Kalpha (P42336 whole entry, looked up): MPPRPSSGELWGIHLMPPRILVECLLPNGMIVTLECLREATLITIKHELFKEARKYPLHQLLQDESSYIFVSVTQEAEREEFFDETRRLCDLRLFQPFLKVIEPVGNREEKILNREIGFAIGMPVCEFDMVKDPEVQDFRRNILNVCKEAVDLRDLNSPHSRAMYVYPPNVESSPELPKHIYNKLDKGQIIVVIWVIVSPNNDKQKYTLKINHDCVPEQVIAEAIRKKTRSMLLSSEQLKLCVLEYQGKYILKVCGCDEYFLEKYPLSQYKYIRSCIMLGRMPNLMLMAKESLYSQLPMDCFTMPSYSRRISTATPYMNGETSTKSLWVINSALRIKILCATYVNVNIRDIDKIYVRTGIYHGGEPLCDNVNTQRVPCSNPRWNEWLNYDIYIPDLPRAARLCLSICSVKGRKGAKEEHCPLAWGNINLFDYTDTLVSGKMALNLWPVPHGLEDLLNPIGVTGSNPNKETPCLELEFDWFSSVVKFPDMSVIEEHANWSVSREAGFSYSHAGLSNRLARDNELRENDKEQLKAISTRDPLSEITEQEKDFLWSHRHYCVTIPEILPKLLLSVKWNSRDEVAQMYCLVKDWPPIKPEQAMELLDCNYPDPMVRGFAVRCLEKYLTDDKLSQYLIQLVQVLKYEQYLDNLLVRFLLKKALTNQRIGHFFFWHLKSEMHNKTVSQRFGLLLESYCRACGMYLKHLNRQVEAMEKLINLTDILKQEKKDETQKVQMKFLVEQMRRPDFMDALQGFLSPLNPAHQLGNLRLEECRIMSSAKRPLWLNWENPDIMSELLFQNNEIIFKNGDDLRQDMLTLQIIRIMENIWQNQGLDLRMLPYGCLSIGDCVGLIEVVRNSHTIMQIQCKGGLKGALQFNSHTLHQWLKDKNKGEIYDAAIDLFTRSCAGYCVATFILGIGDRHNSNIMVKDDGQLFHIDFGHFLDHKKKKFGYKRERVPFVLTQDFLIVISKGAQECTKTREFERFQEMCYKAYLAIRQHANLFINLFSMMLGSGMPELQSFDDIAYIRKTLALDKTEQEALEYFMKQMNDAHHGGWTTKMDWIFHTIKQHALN

Structure (SMILES) | IC50 [nM]
CCc1ncnc(-c2ccc(C(=O)N3CCN(CCNS(C)(=O)=O)CC3)c(Cl)c2)c1C#Cc1ccc(N)nc1 [Example E-253] | 30.6
CCc1ncnc(-c2cc(F)c(C(=O)N3CCN(CCCS(C)(=O)=O)CC3)c(F)c2)c1C#Cc1ccc(N)nc1 [Example E-146] | 45.8
CCc1ncnc(-c2cc(F)c(C(=O)NCC3CCNCC3)c(F)c2)c1C#Cc1ccc(N)nc1 [Example E-175] | 163
CCc1ncnc(-c2ccc(C(=O)N3CCCO3)cc2)c1C#Cc1ccc(N)nc1 [Example D-222] | 42
CCc1ncnc(-c2ccc(C(=O)N3CCN(C)C[C@H]3C)c(F)c2)c1C#Cc1ccc(N)nc1 [Example E-347] | 205
CCc1ncnc(-c2ccc(C(=O)N3CCC(O)(CN(C)C)CC3)c(F)c2)c1C#Cc1ccc(N)nc1 [Example D-103] | 470
CCc1ncnc(-c2cc(Cl)c(C(=O)N3CC[C@@H](N(C)C)C3)c(Cl)c2)c1C#Cc1ccc(N)nc1 [Example E-196] | 235
CCc1ncnc(-c2ccc(C(=O)N3CCCCO3)c(F)c2)c1C#Cc1ccc(N)nc1 [Example D-219] | 105
CCc1ncnc(-c2ccc(C(=O)NCCN3CCOCC3)c(F)c2)c1C#Cc1ccc(N)nc1 [Example D-217] | 44
CCc1ncnc(-c2cc(F)c(C(=O)N3CCN(CCOCCO)CC3)c(F)c2)c1C#Cc1ccc(N)nc1 [Example E-302] | 113
CCc1ncnc(-c2ccc(C(=O)N3CCN(CC)CC3)c(OC(F)(F)F)c2)c1C#Cc1ccc(N)nc1 [Example E-226] | 196
CCNc1ccc(C#Cc2c(CC)ncnc2-c2ccc(C(=O)N3CCC(N4CCOCC4)CC3)c(F)c2)cn1 [Example E-259] | 209
Cc1ncnc(-c2ccc(C3CC3)nc2)c1C#Cc1ccc(N)nc1 [Example C-26] | 43
CCc1ncnc(-c2ccc(C(=O)N3CCC4(CC3)OCCCO4)c(Cl)c2)c1C#Cc1ccc(N)nc1 [Example E-19] | 90.5
CCc1ncnc(-c2ccc(C(=O)N3CCN(CC4CC4)CC3)c(Cl)c2)c1C#Cc1ccc(N)nc1 [Example D-136] | 228
CCc1ncnc(-c2ccc(C(=O)N3CC4(CN(C)C4)C3)c(F)c2)c1C#Cc1ccc(N)nc1 [Example E-287] | 288
CCc1ncnc(-c2cc(F)c(C(=O)N3CCC4(CC3)COC4)c(Cl)c2)c1C#Cc1ccc(N)nc1 [Example E-158] | 122
CCc1ncnc(-c2ccc(C(=O)N3CC4(CN(C)C4)C3)c(Cl)c2)c1C#Cc1ccc(N)nc1 [Example E-334] | 966
CCc1ncnc(-c2cc(F)c(C(=O)N3CCC(CN(C)C)CC3)c(Cl)c2)c1C#Cc1ccc(N)nc1 [Example E-283] | 446
CCc1ncnc(-c2ccc(C(=O)N3CCN(CC4CCCO4)CC3)c(F)c2)c1C#Cc1ccc(N)nc1 [Example D-88] | 118
CCc1ncnc(-c2ccc(C(=O)N3CCC4(CCNCC4)C3)c(F)c2)c1C#Cc1ccc(N)nc1 [Example E-328] | 586
CCc1ncnc(-c2ccc(C(=O)N3CCC(N4CCC(C)CC4)C3)c(OC)c2)c1C#Cc1ccc(N)nc1 (stereo not shown) [Example E-52] | 578
CCN(CC)C(=O)c1cccc(-c2ncnc(C)c2C#Cc2ccc(N)nc2)c1 [Example C-36] | 308
CCc1ncnc(-c2ccc(C(=O)N3CCN(CCOCCO)CC3)c(Cl)c2)c1C#Cc1ccc(N)nc1 [Example E-318] | 107
CCc1ncnc(-c2ccc(C(=O)N3CCC(CN(C)C)CC3)c(Cl)c2)c1C#Cc1ccc(N)nc1 [Example E-274] | 445

Structure (SMILES) | IC50 [nM]
CCc1ncnc(-c2cc(F)c(C(=O)N3CCN(CCOCCO)CC3)c(Cl)c2)c1C#Cc1ccc(N)nc1 [Example E-310] | 86
CCc1ncnc(-c2cc(F)c(C(=O)N3CCN(Cc4nc(C)c(C)o4)CC3)c(F)c2)c1C#Cc1ccc(N)nc1 [Example E-300] | 783
CCc1ncnc(-c2cc(F)c(C(=O)N3CCN(C4COC4)CC3)c(F)c2)c1C#Cc1ccc(N)nc1 [Example E-275] | 141
CCc1ncnc(-c2ccc(C(=O)N3CCC(F)(F)CC3)c(F)c2)c1C#Cc1ccc(N)nc1 [Example E-166] | 154
CCc1ncnc(-c2ccc(C(=O)N(C)CCCOC)c(Cl)c2)c1C#Cc1ccc(N)nc1 [Example D-30] | 68
CCc1ncnc(-c2ccc(C(=O)N3CCN(c4ccccc4)CC3)c(F)c2)c1C#Cc1ccc(N)nc1C [Example D-25] | 498
CCc1ncnc(-c2ccc(C(=O)N3CCN(CC)CC3)c(Cl)c2)c1C#Cc1ccc(N)nc1 [Example D-45] | 186
CCc1ncnc(-c2ccc(C(=O)N(C)C3CCS(=O)(=O)C3)c(F)c2)c1C#Cc1ccc(N)nc1 [Example D-216] | 59
CCc1ncnc(-c2ccc(C(=O)N3CCN(C4CCS(=O)(=O)C4)CC3)c(F)c2)c1C#Cc1ccc(N)nc1 [Example D-86] | 95
CCc1ncnc(-c2ccc(C(=O)N3CCN(C)CC3)c(OC(F)(F)F)c2)c1C#Cc1ccc(N)nc1 [Example E-225] | 224
Cc1ncnc(-c2ccc(C(=O)N3CCN(CCO)CC3)cc2)c1C#Cc1ccc(N)nc1 [Example D-194] | 106
CCc1ncnc(-c2ccc(C(=O)N3C[C@@H]4CCN[C@@H]4C3)c(F)c2)c1C#Cc1ccc(N)nc1 [Example E-332] | 655
CCc1ncnc(-c2ccc(C(=O)N3CCCCC3)c(F)c2)c1C#Cc1ccc(N)nc1C [Example D-10] | 206
CCc1ncnc(-c2cc(F)c(C(=O)N3CCN(CC)CC3)c(F)c2)c1C#Cc1ccc(N)nc1 [Example E-3] | 276
CCc1ncnc(-c2ccc(C(=O)N3CCC(C(C)(C)O)CC3)c(Cl)c2)c1C#Cc1ccc(NC)nc1 [Example E-184] | 399
CCc1ncnc(-c2ccc(C(=O)N3CCN(C4COC4)CC3)c(Cl)c2)c1C#Cc1ccc(N)nc1 [Example E-273] | 119
Cc1ncnc(-c2ccc(C(=O)N3CCCCO3)c(F)c2)c1C#Cc1ccc(N)nc1 [Example D-227] | 47
CCc1ncnc(-c2ccc(C(=O)NCC(O)CN(C)C)c(F)c2)c1C#Cc1ccc(N)nc1 [Example D-196] | 292
CCc1ncnc(-c2ccc(C(=O)N(C)C)c(F)c2)c1C#Cc1ccc(N)nc1 [Example C-15A] | 57
CCc1ncnc(-c2ccc(C(=O)N3CCN4CCCCC4C3)c(F)c2)c1C#Cc1ccc(N)nc1 [Example D-87] | 233
CCc1ncnc(-c2cc(F)c(C(=O)N3CCC(CO)CC3)c(F)c2)c1C#Cc1ccc(NC)nc1 [Example E-220] | 293
CCc1ncnc(-c2ccc(C(=O)N3CCCC(O)C3)c(F)c2)c1C#Cc1ccc(N)nc1 [Example D-110] | 64
CCc1ncnc(-c2cc(F)c(C(=O)N3CCC(CN)CC3)c(Cl)c2)c1C#Cc1ccc(N)nc1 [Example E-285] | 647
CCc1ncnc(-c2ccc(C(=O)N3CCN(C4CCCC4O)CC3)c(Cl)c2)c1C#Cc1ccc(N)nc1 (stereo not shown) [Example E-316] | 57.1
CCc1ncnc(-c2ccc(C(=O)N(C)CC(C)(C)O)c(F)c2)c1C#Cc1ccc(N)nc1 [Example D-81] | 84

Structure (SMILES) | IC50 [nM]
CCc1ncnc(-c2ccc(C(=O)N3CCN(c4ccccc4)CC3)c(C)c2)c1C#Cc1ccc(N)nc1 [Example E-135] | 149
CCc1ncnc(-c2cc(F)c(C(=O)N3CCCC3)c(F)c2)c1C#Cc1ccc(N)nc1 [Example E-11] | 125
CCc1ncnc(-c2ccc(C(=O)N3CCCO3)c(C)c2)c1C#Cc1ccc(N)nc1 [Example E-94] | 146
CCc1ncnc(-c2ccc(S(C)(=O)=O)cc2)c1C#Cc1ccc(C)nc1 [Example C-17] | 99
CCNc1ccc(C#Cc2c(CC)ncnc2-c2ccc(C(=O)N3CCC4(CC3)COC4)c(F)c2)cn1 [Example E-263] | 204
CCc1ncnc(-c2ccc(C(=O)N3CCC(N4CCN(C)CC4)CC3)c(Cl)c2)c1C#Cc1ccc(N)nc1 [Example E-70] | 137
CCc1ncnc(-c2cc(F)c(C(=O)N3CCN(Cc4nc(C)c(C)o4)CC3)c(Cl)c2)c1C#Cc1ccc(N)nc1 [Example E-307] | 193
CCc1ncnc(-c2ccc(C(=O)N3CCN(C(CC)CC)CC3)c(F)c2)c1C#Cc1ccc(N)nc1 [Example D-130] | 384
CCc1ncnc(-c2ccc(C(=O)N3CCN(CC)CC3)c(Cl)c2)c1C#Cc1ccc(NC)nc1 [Example E-189] | 186
CCc1ncnc(-c2ccc(C(=O)N3CCN(C(C)COC)CC3)c(F)c2)c1C#Cc1ccc(N)nc1 (stereo not shown) [Example E-291] | 220
CCc1ncnc(-c2ccc(C(=O)N3CC(O)CO3)c(Cl)c2)c1C#Cc1ccc(N)nc1 (stereo not shown) [Example E-73] | 88.3
CCc1ncnc(-c2cc(F)c(C(=O)N3CCC(N4CCOCC4)CC3)c(F)c2)c1C#Cc1ccc(N)nc1 [Example E-9] | 199
CCc1ncnc(-c2ccc(C(=O)NC)c(Cl)c2)c1C#Cc1ccc(N)nc1 [Example C-12] | 71
CNC(=O)c1cc(-c2ncnc(C)c2C#Cc2ccc(N)nc2)ccc1F [Example C-43] | 184
CCc1ncnc(-c2cc(F)c(C(=O)N3CCC(N4CCOCC4)CC3)c(Cl)c2)c1C#Cc1ccc(N)nc1 [Example E-236] | 141
CCc1ncnc(-c2ccc(C(=O)N3CCN(C4CCOCC4)CC3)c(Cl)c2)c1C#Cc1ccc(N)nc1 [Example D-31] | 97
CCc1ncnc(-c2ccc(C(=O)N3CCC(C(F)(F)F)CC3)c(F)c2)c1C#Cc1ccc(N)nc1C [Example D-14] | 647
CCc1ncnc(-c2ccc(C(=O)N3CCN(C(C)=O)CC3)c(F)c2)c1C#Cc1ccc(N)nc1C [Example D-82] | 146
CCc1ncnc(-c2ccc(C(=O)N3CC(O)CO3)cc2)c1C#Cc1ccc(N)nc1 [Example D-224] | 39
CCc1ncnc(-c2ccc(C(=O)N3CCC(N4CCCCCC4)CC3)c(OC)c2)c1C#Cc1ccc(N)nc1 [Example E-58] | 253
CCNc1ccc(C#Cc2c(CC)ncnc2-c2ccc(C(=O)N3CC4(CN(C(=O)OC(C)(C)C)C4)C3)c(F)c2)cn1 [Example E-267] | 421
CCc1ncnc(-c2ccc(C(=O)NCC3(C)COC3)c(Cl)c2)c1C#Cc1ccc(N)nc1 [Example E-41] | 66
CCc1ncnc(-c2ccc(C(=O)N3CCN(CC(F)F)CC3)c(Cl)c2)c1C#Cc1ccc(NC)nc1 [Example E-187] | 162
